{"source": "patent US11185549B2", "about": "“Combination of a PI3K-inhibitor with an androgen receptor antagonist” (priority 2017, dated 2021)", "key": {"androgen receptor [1]": {"biological_target": "androgen receptor (Homo sapiens, UniProt P10275)", "sequence (P10275 whole entry, species assumed)": "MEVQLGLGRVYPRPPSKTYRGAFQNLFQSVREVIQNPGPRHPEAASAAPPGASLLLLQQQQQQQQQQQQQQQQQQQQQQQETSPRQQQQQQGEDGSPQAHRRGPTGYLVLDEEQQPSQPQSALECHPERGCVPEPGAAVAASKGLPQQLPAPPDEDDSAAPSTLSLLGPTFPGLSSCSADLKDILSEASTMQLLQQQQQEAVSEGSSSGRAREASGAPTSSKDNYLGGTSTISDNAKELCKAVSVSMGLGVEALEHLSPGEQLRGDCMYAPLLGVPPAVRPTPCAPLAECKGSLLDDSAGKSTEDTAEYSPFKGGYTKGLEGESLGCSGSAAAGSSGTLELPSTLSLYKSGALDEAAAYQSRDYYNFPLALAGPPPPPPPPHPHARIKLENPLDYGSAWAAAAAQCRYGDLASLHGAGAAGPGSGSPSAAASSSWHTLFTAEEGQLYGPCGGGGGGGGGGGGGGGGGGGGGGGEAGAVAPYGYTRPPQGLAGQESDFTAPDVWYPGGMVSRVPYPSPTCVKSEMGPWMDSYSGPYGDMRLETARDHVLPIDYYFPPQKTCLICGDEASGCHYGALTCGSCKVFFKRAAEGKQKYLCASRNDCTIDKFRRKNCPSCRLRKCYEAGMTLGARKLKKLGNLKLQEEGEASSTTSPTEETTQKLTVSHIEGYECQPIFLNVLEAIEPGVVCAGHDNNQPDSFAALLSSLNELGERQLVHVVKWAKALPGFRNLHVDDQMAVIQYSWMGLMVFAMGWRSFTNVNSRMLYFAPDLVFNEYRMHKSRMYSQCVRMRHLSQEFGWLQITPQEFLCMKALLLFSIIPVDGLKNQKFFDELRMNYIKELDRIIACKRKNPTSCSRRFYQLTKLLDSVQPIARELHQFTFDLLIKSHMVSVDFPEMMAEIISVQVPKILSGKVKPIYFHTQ", "settings": "cited from earlier work"}, "[2]": {"system": "VCaP human prostate cancer cells", "experiment": "VCaP proliferation assay (CellTiter-Glo), single agents and combination index", "format": "cell-based", "method": "(§1) Cell lines derived from human prostate cancer metastasis were used (Table 1).\n(§2) After one day, the cells were treated with R1881 (10 nM) and 1 nM to 10 μM compounds (day 0). Cell number was determined following addition of CellTiter-Glo® (Promega) at day 0 and day 6. Luminescence was determined in a Victor X3 device (PerkinElmer). The inhibition of cell growth was calculated by normalization with respect to the luminescence reading (cell number) measured at the end of the experiment for cells treated with R1881 alone compared to the fluorescence reading (cell number) measured at the end of the experiment for DMSO-treated cells. […] After one day, the cells were treated with R1881 (0.1 nM) and 1 nM to 10 μM compounds (day 0). Cell number was determined following addition of CellTiter-Glo® (Promega) at day 0 and day 6. Luminescence was determined in a Victor X3 device […]. The inhibition of cell growth was calculated by normalization with respect to the luminescence reading (cell number) measured at the end of the experiment for cells treated with R1881 alone compared to the fluorescence reading (cell number) measured at the start of the experiment for DMSO-treated cells.\n(§3) The Combination Index (CI) was determined for the two compound ratios closest to the ratio of the respective IC50 values of each compound alone."}, "androgen receptor [3]": {"system": "androgen receptor", "settings": "cited from earlier work"}, "[4]": {"system": "LAPC-4 human prostate cancer cells", "experiment": "LAPC-4 proliferation assay (CellTiter-Glo), single agents and combination index", "format": "cell-based", "method": "as §1, §2, §3"}, "PI3K isoforms": {"system": "PI3K isoforms", "settings": "cited from earlier work"}, "mTOR": {"biological_target": "mTOR (Homo sapiens, UniProt P42345)", "settings": "cited from earlier work"}, "[5]": {"settings": "Homo sapiens, VCaP, 144 h, VCaP cells, single agent, R1881 0.1 nM, day 6, read-out: Compound A IC50"}, "[6]": {"settings": "Homo sapiens, LAPC4, 144 h, LAPC-4 cells, single agent, R1881 10 nM, day 6, read-out: Compound A IC50"}}, "note": "Where “and” joins values, the source holds several entries; their conditions need not be identical. Identical values can stand only once. Counter-ions that a name gives are not always drawn. Like-named read-outs stand apart in the source and are kept apart here."}
{"smiles": "CC(O)c1cc(C(=O)N[C@@H](C)Cn2ccc(-c3ccc(C#N)c(Cl)c3)n2)[nH]n1", "note": "(some centres unmarked) [Darolutamide]", "values": [{"measurement": "inhibition of transactivation function", "setting": "androgen receptor [1]", "result": "high inhibition"}, {"measurement": "IC50", "setting": "[2]; Homo sapiens, VCaP, 144 h, read-out: Compound B IC50, VCaP cells, single agent, R1881 0.1 nM, day 6", "result": 350, "unit": "nM"}, {"measurement": "IC50", "setting": "[2]; read-out: Compound B IC50, VCaP cells, single agent, R1881 0.1 nM, day 6", "result": "417 nM and 557 nM"}, {"measurement": "binding affinity for the androgen receptor", "setting": "androgen receptor [3]", "result": "low nanomolar"}, {"measurement": "IC50", "setting": "[4]; Homo sapiens, LAPC4, 144 h, read-out: Compound B IC50, LAPC-4 cells, single agent, R1881 10 nM, day 6", "result": 263, "unit": "nM"}, {"measurement": "IC50", "setting": "[4]; read-out: Compound B IC50, LAPC-4 cells, single agent, R1881 10 nM, day 6", "result": 366, "unit": "nM"}]}
{"smiles": "Cn1c(=O)n(-c2ccc(C(C)(C)C#N)cc2)c2c3cc(-c4cnc5ccccc5c4)ccc3ncc21", "note": "[Dactolisib]", "values": [{"measurement": "activity against PI3K isoforms", "setting": "PI3K isoforms", "result": "low nanomolar"}, {"measurement": "IC50", "setting": "[2]; [5]", "result": 26, "unit": "nM"}, {"measurement": "activity against mTOR", "setting": "mTOR", "result": "low nanomolar"}]}
{"smiles": "Cc1c(CN2CCN(C(=O)[C@H](C)O)CC2)sc2c(N3CCOCC3)nc(-c3cnc(N)nc3)nc12", "note": "[Apitolisib]", "values": [{"measurement": "activity against PI3K isoforms", "setting": "PI3K isoforms", "result": "low nanomolar"}, {"measurement": "IC50", "setting": "[2]; [5]", "result": 52, "unit": "nM"}, {"measurement": "activity against mTOR", "setting": "mTOR", "result": "low nanomolar"}, {"measurement": "IC50", "setting": "[4]; [6]", "result": 12, "unit": "nM"}, {"measurement": "IC50", "setting": "[4]; LAPC-4 cells, single agent, R1881 10 nM, day 6, read-out: Compound A IC50", "result": 13, "unit": "nM"}]}
{"smiles": "COc1c(OCCCN2CCOCC2)ccc2c1N=C(NC(=O)c1cnc(N)nc1)N1CCN=C21", "note": "[Copanlisib, 2-amino-N-[7-methoxy-8-(3-morpholin-4-ylpropoxy)-2,3-dihydroimidazo[1,2-c]quinazolin-5-yl]pyrimidine-5-carboxamide dihydrochloride]", "values": [{"measurement": "IC50", "setting": "[2]; [5]", "result": 9, "unit": "nM"}, {"measurement": "IC50", "setting": "[4]; [6]", "result": 41, "unit": "nM"}, {"measurement": "IC50", "setting": "[4]; LAPC-4 cells, single agent, R1881 10 nM, day 6, dihydrochloride, read-out: Compound A IC50", "result": 49, "unit": "nM"}]}
